According to patent EP0252380B1, “Antibiotic LL-E19020 alpha and beta” (AMERICAN CYANAMID COMPANY, priority 1986, dated 1988):
Converted amounts (≈) assume the structure as drawn.

Key:
Streptococcus faecalis = experiment: Minimum inhibitory concentration by agar dilution (Table VI); assay type: cell-based; conditions: 1 strain tested
[1] = test system: Streptococcus pyogenes C203; experiment: In vivo antibacterial activity in infected mice (Table III); conditions: S. pyogenes C203, 30 minutes before infection
Streptococcus pyogenes = experiment: Minimum inhibitory concentration by agar dilution (Table VI); assay type: cell-based; conditions: 2 strains tested
[2] = test system: Pasteurella haemolytica 30660; experiment: Pasteurella disk test (primary in vitro disk diffusion test); assay type: cell-based; conditions: disks soaked in 2.5 mg/ml solution; strain 30660
Streptococcus agalactiae = experiment: Minimum inhibitory concentration by agar dilution (Table VI); assay type: cell-based; conditions: 4 strains tested
Enterobacter cloacae = experiment: In vitro antibacterial activity, standard agar dilution method (Table II); assay type: cell-based; conditions: strain VGH-84-37
[3] = test system: Trichostrongylus colubriformis; experiment: Trichostrongylus colubriformis/gerbil anthelmintic evaluation; assay type: in vivo, Gerbils
Experimental: Gerbils are infected with 400 infective larvae of the sheep parasite, T. colubriformis on a day 0. On day 7 gerbils are divided into test and untreated control groups of 2-3 animals. Drug is administered in the feed and are fed from day 7-11. Drugs may also be given by gavage (single oral dose) or injected subcutaneously. Single doses are usually administered on day 7. Gerbils are killed on day 11 and small intestines removed. The number of T. colubriformis remaining in the intestines of treated animals are counted and compared to the number remaining in the untreated controls.

[4] = test system: Bordetella bronchiseptica; experiment: Minimum inhibitory concentration by agar dilution (Table VI); assay type: cell-based; conditions: 4 strains tested
[5] = test system: Pasteurella multocida 31081B; experiment: Pasteurella disk test (primary in vitro disk diffusion test); conditions: disks soaked in 2.5 mg/ml solution; strain 31081B
Pasteurella multocida = experiment: Minimum inhibitory concentration by agar dilution (Table VI); assay type: cell-based; conditions: 6 strains tested
Clostridium perfringens = assay type: cell-based; conditions: strain ATCC 13124
Salmonella choleraesuis = experiment: Minimum inhibitory concentration by agar dilution (Table VI); assay type: cell-based; conditions: 2 strains tested
Caenorhabditis elegans = experiment: Control of the free living nematode Caenorhabditis elegans (motility rating); assay type: cell-based; parameters: key: 9 = worms immobile or dead within 4 hours post immersion in microfilter test solution; 8 = no motility; 7 = markedly reduced motility in approximately 95% of worms; 6 = reduced motility; 5 = slightly reduced motility; 0 = normal motility, same as controls; conditions: 150 ppm; motility of adults and larvae
Text: Culture Maintenance: Cultures of C. elegans (Bristol strain from J. Lewis) are maintained on E. coli lawns on NG Agar Plates at 20 C. New cultures are established weekly. Nematodes for testing are washed from 4-5 day old cultures using Fresh Ascaris ringers Solution (FARS). The worms are further washed with FARS, containing gentamycin, to reduce bacterial contamination and centrifuged to separate worms from wash solution. This procedure is repeated three times. The washed worms are than added to C. briggsae Maintenance Medium (CbMM), from GIBCO^a to which is added gentamycin (600 units/ml) and mycostatin (0.5 mg.ml). ^aGIBCO Laboratories, 3175 Staley Road, Grand Island, N.Y. 14027, USA Compounds are dissolved in acetone and made up to volume with equal parts of water. The final test concentration of each compound in the mixture is 150 ppm. The test material is micropipetted (25 ul) into a single well of a 96-well sterile tissue culture plate (COSTAR)^b and the solvent allowed to evaporate. These "treated" plates are used immediately or stored in a freezer without apparent adverse effects on the compounds. ^b205 Broadway, Cambridge, MA 02139, USA […] […] Immediately prior to reading the plate, it is gently tapped to stimulate the movement of the worms. Activity is judged subjectively, but semi-quantitatively, based on the drug effects on motility of the adults and larvae. […]

Serratia marcescens = experiment: In vitro antibacterial activity, standard agar dilution method (Table II); assay type: cell-based; conditions: strain K-84-18
Staphylococcus aureus = experiment: Minimum inhibitory concentration by agar dilution (Table VI); assay type: cell-based; conditions: 7 strains tested
[6] = test system: Streptococcus sp. (β-hemolytic); experiment: In vitro antibacterial activity, standard agar dilution method (Table II); assay type: cell-based
Babesia bovis = experiment: Anti-Babesia bovis activity, 3H hypoxanthine incorporation in in vitro culture; conditions: parasitemia of 4%
Clostridium difficile = experiment: In vitro antibacterial activity, standard agar dilution method (Table II); assay type: cell-based; conditions: strain ATCC 17858
[7] = test system: Staphylococcus saprophyticus; experiment: as above; assay type: cell-based; conditions: strain VHG-84-50
Enterococcus = experiment: as above; assay type: cell-based
Bacteroides fragilis = experiment: as above; assay type: cell-based; conditions: strain NYC 77-1
[8] = single subcutaneous dose 4 mg/kg
[9] = single subcutaneous dose 8 mg/kg
[10] = single subcutaneous dose 16 mg/kg
[11] = single subcutaneous dose 32 mg/kg
[12] = single subcutaneous dose 64 mg/kg

Compound | MIC (Streptococcus faecalis) [µg/mL] | Survival Ratios 7 Days After Infection [1, 8] | Survival Ratios 7 Days After Infection [1, 9] | Survival Ratios 7 Days After Infection [1, 10] | Survival Ratios 7 Days After Infection [1, 11] | Survival Ratios 7 Days After Infection [1, 12] | MIC (Streptococcus pyogenes) [µg/mL] | ZONE SIZE [2] [mm] | MIC (Streptococcus agalactiae) [µg/mL] | Minimal Inhibitory Concentration (Enterobacter cloacae) [µg/mL] | % Worms Removed ([3]; 250 ppm diet, fed day 7-11) [%] | MIC [4] [µg/mL] | ZONE SIZE [5] [mm] | MIC (Pasteurella multocida) [µg/mL] | Minimal Inhibitory Concentration (Clostridium perfringens) [µg/mL] | MIC (Salmonella choleraesuis) [µg/mL] | Rating (Caenorhabditis elegans) | Minimal Inhibitory Concentration (Serratia marcescens) [µg/mL] | Minimal Inhibitory Concentration ([6]; strain C203) [µg/mL] | Minimal Inhibitory Concentration ([6]; strain VGH-84-60) [µg/mL] | also measured
C/C=C\C=C\[C@@H]1O[C@](O)([C@H](CO[C@H]2C[C@@H](OC)[C@@H](O[C@@H]3C[C@@H](OC)[C@@H](O[C@H]4C[C@H](OC)[C@H](O)[C@H](C)O4)[C@H](C)O3)[C@@H](C)O2)C(=O)NC/C=C/C=C(\C)[C@@H](OC)[C@H](C)[C@H]2C[C@H](O)[C@H](/C=C/C=C/C=C/C(=O)O)O2)[C@H](OC(=O)Cc2ccccc2)[C@H](O)C1(C)C [LL-E19020 alpha] | 8 (≈ 6.52 µM) | 2/5 | 4/5 | 5/5 | 5/5 | 5/5 | 2 (≈ 1.63 µM) | 13 | 2 to 8 | >256 | 56 | > 256 | 15 | 8 to 16 | 16 | > 256 | 9 (immobile or dead) | >256 | 0.5 | 0.25 | % Worms Removed ([3]; 10 m/kg single oral dose): 23%; MIC (Staphylococcus aureus): ≧ 256 µg/ml; Minimal Inhibitory Concentration ([6]; strain VGH-84-61): 1 µg/mL; Minimal Inhibitory Concentration ([6]; strain VGH-84-62): 1 µg/mL; Minimal Inhibitory Concentration ([6]; strain VGH-84-63): 0.12 µg/mL; Minimal Inhibitory Concentration ([6]; strain VGH-84-64): 0.12 µg/mL; 50% inhibitory concentration (Babesia bovis): 0.625 µg/mL; Minimal Inhibitory Concentration (Clostridium difficile): 4 µg/mL; Minimal Inhibitory Concentration [7]: > 256 µg/mL; Minimal Inhibitory Concentration (Enterococcus; strain CMC-83-72): >256 µg/mL; Minimal Inhibitory Concentration (Enterococcus; strain IO-83-28): >256 µg/mL; Minimal Inhibitory Concentration (Enterococcus; strain IO-83-40): >256 µg/mL; Minimal Inhibitory Concentration (Enterococcus; strain VGH-84-65): 256 µg/mL; Minimal Inhibitory Concentration (Enterococcus; strain VGH-84-68): >256 µg/mL; Minimal Inhibitory Concentration (Bacteroides fragilis): >128 µg/mL
C/C=C/C=C/[C@@H]1O[C@](O)([C@H](CO[C@H]2C[C@H](OC)[C@H](O[C@@H]3C[C@H](OC)[C@@H](O[C@H]4C[C@H](OC)[C@H](O)[C@H](C)O4)[C@H](C)O3)[C@H](C)O2)C(=O)NC/C=C/C=C(\C)[C@H](OC)[C@@H](C)[C@@H]2C[C@H](O)[C@@H](/C=C/C=C/C=C\C(=O)O)O2)[C@@H](O)[C@H](OC(=O)Cc2ccccc2)C1(C)C [LL-E19020 beta] | 8 (≈ 6.52 µM) | 2/5 | 3/5 | 5/5 | 5/5 | 5/5 | 2 to 4 | 13 | 2 to 4 | >128 | 100 | > 256 | 13 | 8 to 16 | 4 | > 256 | 9 (immobile or dead) | >128 | 0.5 | 0.25 | % Worms Removed ([3]; 5 m/kg single oral dose): 19%; % Worms Removed ([3]; 62.5 ppm diet, fed day 7-11): 32%; % Worms Removed ([3]; 150 ppm diet, fed day 7-11): 86%; Minimal Inhibitory Concentration ([6]; strain VGH-84-61): 0.5 µg/mL; Minimal Inhibitory Concentration ([6]; strain VGH-84-62): 0.5 µg/mL; Minimal Inhibitory Concentration ([6]; strain VGH-84-63): 0.12 µg/mL; Minimal Inhibitory Concentration ([6]; strain VGH-84-64): 0.12 µg/mL; Minimal Inhibitory Concentration (Clostridium difficile): 1 µg/mL; Minimal Inhibitory Concentration [7]: > 128 µg/mL; Minimal Inhibitory Concentration (Enterococcus; strain CMC-83-72): >128 µg/mL; Minimal Inhibitory Concentration (Enterococcus; strain IO-83-28): >128 µg/mL; Minimal Inhibitory Concentration (Enterococcus; strain IO-83-40): >128 µg/mL; Minimal Inhibitory Concentration (Enterococcus; strain VGH-84-65): >128 µg/mL; Minimal Inhibitory Concentration (Enterococcus; strain VGH-84-68): >128 µg/mL; Minimal Inhibitory Concentration (Bacteroides fragilis): >128 µg/mL
